Laboratory results as given in patent publication US20070128217A1 (priority 2003, published 2007).

Columns and labels:
[1] = tested on: antibodies in sera from SARS patients (sera 1a, 1b, 2, 6, 37, 62, London, SARS-yellow, SARS-green); type: binding, human; design: Binding of serum 6 to linear peptides of protein X1 of SARS-CoV Urbani / Binding of serum 37 to linear peptides of protein X1 of SARS-CoV Urbani / Binding of serum 6 to looped/cyclic peptide (PEPSCAN-ELISA) / Binding of serum 37 to looped/cyclic peptide (PEPSCAN-ELISA) / Binding of serum 37 to looped/cyclic peptides of protein X1 of SARS-CoV Urbani / Binding of serum 6 to linear peptides of protein X2 / Binding of serum 37 to linear peptides of protein X2 / Binding of serum 37 to looped/cyclic peptides of protein X2 of SARS-CoV Urbani / Binding of serum 6 to linear peptides of protein M of SARS-CoV Urbani / Binding of serum 37 to linear peptides of protein M of SARS-CoV Urbani / Binding of serum 6 to looped/cyclic peptides of protein M of SARS-CoV Urbani / Binding of serum 37 to looped/cyclic peptides of protein M of SARS-CoV Urbani / Binding of serum 6 to linear peptides of protein X3 of SARS-CoV Urbani / Binding of serum 37 to linear peptides of protein X3 of SARS-CoV Urbani / Binding of serum 37 to looped/cyclic peptides of protein X3 of SARS-CoV Urbani / Binding of serum 6 to linear peptides of protein X4 of SARS-CoV Urbani / Binding of serum 37 to linear peptides of protein X4 of SARS-CoV Urbani / Binding of serum 37 to looped/cyclic peptides of protein X4 of SARS-CoV Urbani / Binding of serum 6 to linear peptides of protein X5 of SARS-CoV Urbani / Binding of serum 37 to linear peptides of protein X5 of SARS-CoV Urbani / Binding of serum 37 to looped/cyclic peptides of protein X5 of SARS-CoV Urbani / Binding of serum 6 to linear peptides of protein N of SARS-CoV Urbani / Binding of serum 37 to linear peptides of protein N of SARS-CoV Urbani / Binding of serum 6 to linear peptide (PEPSCAN-ELISA) / Binding of serum 1a to looped/cyclic peptides of protein N of SARS-CoV Urbani / Binding of serum 1b to looped/cyclic peptides of protein N of SARS-CoV Urbani / Binding of serum 2 to looped/cyclic peptides of protein N of SARS-CoV Urbani / Binding of serum 6 to looped/cyclic peptides of protein N of SARS-CoV Urbani / Binding of serum 37 to looped/cyclic peptides of protein N of SARS-CoV Urbani / Binding of serum 62 to looped/cyclic peptides of protein N of SARS-CoV Urbani / Binding of serum London to looped/cyclic peptides of protein N of SARS-CoV Urbani / Binding of serum SARS-green to looped/cyclic peptides of protein N of SARS-CoV Urbani: unit not given here
[2] = tested on: control sera (pooled serum of ten healthy LUMC hospital workers; commercial negative donor pooled serum from the Dutch bloodbank); type: binding, human; design: Binding of Control serum LUMC to linear peptides / Binding of Control serum Blood-bank to linear peptides / Binding of Control serum LUMC to looped peptides / Binding of Control Serum Blood-Bank to Looped peptides / Binding of Control serum LUMC to linear peptides of the protein M of SARS-CoV Urbani / Binding of Control serum Blood-bank to linear peptides of the protein M of SARS-CoV Urbani / Binding of Control serum LUMC to looped peptides of the protein M of SARS-CoV Urbani / Binding of Control Serum Blood-Bank to Looped peptides of the protein M of SARS-CoV Urbani: unit not given here
[3] = tested on: recombinant human anti-SARS-CoV antibody 03-018; type: binding; design: Binding of antibody 03-018 to linear peptides of the N protein of SARS-CoV Urbani / Binding of antibody 03-018 to looped/cyclic peptides of the N protein of SARS-CoV Urbani: unit not given here
[4] = tested on: rabbit serum obtained by immunizing a rabbit with the SARS-CoV strain Frankfurt 1; type: binding; design: Binding of a rabbit serum to linear peptides / Binding of a rabbit serum to looped peptides / Rabbit serum linear peptides / Rabbit serum looped peptides / Binding of a rabbit serum to linear peptides of protein N of SARS-CoV Urbani (Rabbit serum linear peptides) / Binding of a rabbit serum to looped/cyclic peptides of protein N of SARS-CoV Urbani (Rabbit serum looped peptides): unit not given here

Sequence	Binding of serum 1a to linear peptides of protein N of SARS-CoV Urbani [1]	Binding of serum 1a to looped/cyclic peptides of protein N of SARS-CoV Urbani [1]	Binding of serum 1b to linear peptides of protein N of SARS-CoV Urbani [1]	Binding of serum 1b to looped/cyclic peptides of protein N of SARS-CoV Urbani [1]	Binding of serum 2 to linear peptides of protein N of SARS-CoV Urbani [1]	Binding of serum 2 to looped/cyclic peptides of protein N of SARS-CoV Urbani [1]	Binding of serum 6 to looped/cyclic peptides of protein N of SARS-CoV Urbani [1]	Binding of serum 37 to looped/cyclic peptides of protein N of SARS-CoV Urbani [1]	Binding of serum 62 to looped/cyclic peptides of protein N of SARS-CoV Urbani [1]	Binding of serum London to looped/cyclic peptides of protein N of SARS-CoV Urbani [1]	Binding of serum SARS-green to looped/cyclic peptides of protein N of SARS-CoV Urbani [1]	Binding of serum SARS-yellow to looped/cyclic peptides of protein N of SARS-CoV Urbani [1]	Binding of Control Serum Blood-Bank to Looped peptides [2]	Binding of Control serum Blood-bank to linear peptides [2]	Binding of Control serum LUMC to linear peptides [2]	Binding of Control serum LUMC to looped peptides [2]	Binding of antibody 03-018 to linear peptides of the N protein of SARS-CoV Urbani [3]	Binding of antibody 03-018 to looped/cyclic peptides of the N protein of SARS-CoV Urbani [3]	Binding of a rabbit serum to linear peptides of protein N of SARS-CoV Urbani (Rabbit serum linear peptides) [4]	Binding of a rabbit serum to looped/cyclic peptides of protein N of SARS-CoV Urbani (Rabbit serum looped peptides) [4]	further results
GIVWVATEGALNTPK	0.3	0.3	0.2	0.1	0.5	0.4	0.2	0.5	0.4	0.4	0.3	0.3	0.5	1.0	1.0	0.5	0.1	0.2	0.2	0.5	Binding of serum 6 to linear peptides of protein N of SARS-CoV Urbani [1]: 0.3; Binding of serum 37 to linear peptides of protein N of SARS-CoV Urbani [1]: 0.9; Binding of serum 62 to linear peptides of protein N of SARS-CoV Urbani [1]: 0.9; Binding of serum London to linear peptides of protein N of SARS-CoV Urbani [1]: 0.6; Binding of serum SARS-green to linear peptides of protein N of SARS-CoV Urbani [1]: 1.0; Binding of serum SARS-yellow to linear peptides of protein N of SARS-CoV Urbani [1]: 0.8
GLPNNTASWFTALTQ	0.2	0.4	0.1	0.2	0.2	0.4	0.3	0.7	0.7	0.4	0.6	0.5	0.8	0.7	0.6	0.7	0.1	0.3	0.1	0.4	Binding of serum 6 to linear peptides of protein N of SARS-CoV Urbani [1]: 0.1; Binding of serum 37 to linear peptides of protein N of SARS-CoV Urbani [1]: 0.7; Binding of serum 62 to linear peptides of protein N of SARS-CoV Urbani [1]: 0.6; Binding of serum London to linear peptides of protein N of SARS-CoV Urbani [1]: 0.4; Binding of serum SARS-green to linear peptides of protein N of SARS-CoV Urbani [1]: 0.4; Binding of serum SARS-yellow to linear peptides of protein N of SARS-CoV Urbani [1]: 0.4
GNSRNSTPGSSRGNS	–	0.6	–	0.5	–	0.4	0.4	0.5	0.5	0.3	0.1	0.5	0.6	0.8	0.7	0.7	0.1	0.2	0.2	0.8	Binding of serum 1a to linear peptide (PEPSCAN-ELISA) [1]: 0.7; Binding of serum 1b to linear peptide (PEPSCAN-ELISA) [1]: 0.5; Binding of serum 2 to linear peptide (PEPSCAN-ELISA) [1]: 0.2; Binding of serum 6 to linear peptide (PEPSCAN-ELISA) [1]: 0.2; Binding of serum 37 to linear peptide (PEPSCAN-ELISA) [1]: 0.7; Binding of serum 62 to linear peptide (PEPSCAN-ELISA) [1]: 0.7; Binding of serum London to linear peptide (PEPSCAN-ELISA) [1]: 0.5; Binding of serum SARS-green to linear peptide (PEPSCAN-ELISA) [1]: 0.2; Binding of serum SARS-yellow to linear peptide (PEPSCAN-ELISA) [1]: 0.7
GPEQTQGNFGDQDLI	–	0.4	–	0.4	–	0.4	0.2	0.6	0.4	0.3	0.9	0.6	0.5	0.8	0.8	0.6	0.1	0.2	0.2	0.3	Recognition of the peptide by sera of SARS-CoV infected individuals, and form (linear, looped/cyclic) in which it is recognized [1]: recognized in linear form
GPQSNQRSAPRITFG	0.2	0.3	0.1	0.2	0.2	0.3	0.3	0.6	0.4	0.4	0.3	0.8	0.7	0.6	0.5	0.8	–	–	–	–	Binding of serum 6 to linear peptides of protein N of SARS-CoV Urbani [1]: 0.1; Binding of serum 37 to linear peptides of protein N of SARS-CoV Urbani [1]: 0.6; Binding of serum 62 to linear peptides of protein N of SARS-CoV Urbani [1]: 0.7; Binding of serum London to linear peptides of protein N of SARS-CoV Urbani [1]: 0.4; Binding of serum SARS-green to linear peptides of protein N of SARS-CoV Urbani [1]: 0.4; Binding of serum SARS-yellow to linear peptides of protein N of SARS-CoV Urbani [1]: 0.5; Recognition of the peptide by antibody 03-018 [3]: recognized; Recognition of the peptide by the rabbit serum [4]: also recognized
